Where two headings read alike, the source gives them in different places.
Tests used:
Format in all cases: binding
HLA-A*02:01 [1] = target: T1, HLA-A*02:01 (Homo sapiens, UniProt P04439, D140Y/D185E/D98H/E176V/E277Q/G131W/G231S/I119V/I121R/I166T/I218V/L300P/L318F/N151K/N90K/P208A/P217A/Q86G/Q94H/R138H/R169H/T345S)
HLA-A*24:02 [2] = target: T2, HLA-A*24:02 (Homo sapiens, UniProt P04439, D101N/D140Y/D185E/E176V/E190D/F33S/G103R/G107R/I119L/I121M/I306V/K335N/L105A/L180Q/L300P/N151K/N90K/Q86E/Q94H/R106L/R138H/R89G/T104I/T345S/V100E/W191G/Y123F); conditions: duplicated experiments, positive binder >40%
HLA-A*30:01 = HLA-A*30:01 (Homo sapiens, UniProt P04439, D140H/D185E/E176W/F33S/G80R/H175R/K168Q/R138E/R41S); conditions: duplicated experiments, positive binder >40%
HLA-A*30:02 [3] = target: T3, HLA-A*30:02 (Homo sapiens, UniProt P04439, D101N/D140H/D185E/E176R/F33S/G80R/H175R/K168Q/Q94H/R138E/R41S/V100E); conditions: duplicated experiments, positive binder >40%
HLA-A*30:02 [4] = target: T3, HLA-A*30:02
HLA-A*30:02 [5] = target: T3, HLA-A*30:02; conditions: time points 0-8 h
HLA-A*68:01 [6] = target: T4, HLA-A*68:01 (Homo sapiens, UniProt P04439, A269V/D185E/E176V/E277Q/E87N/F33Y/G231S/I121M/I166T/I218V/L180W/L300P/L318F/N151K/P208A/P217A/Q86R/R169H/T345S); conditions: duplicated experiments, positive binder >40%
HLA-B*07:02 = HLA-B*07:02 (Homo sapiens, UniProt P01889); conditions: percent relative the binding of positive control peptide […]; duplicated experiments; positive binder >40%
HLA-B*58:01 [7] = target: T5, HLA-B*58:01 (Homo sapiens, UniProt P01889, A329T/C349S/D201E/D98Y/E176V/E187L/E204Q/E69T/G107R/I218V/I90N/K202T/L105A/L119I/N104I/N87E/Q89R/Q94S/R106L/R155S/R180L/R86G/S101N/S121R/S35A/S48A/T118I/V127L/V306I/V36M/Y140S/Y91M); conditions: duplicated experiments, positive binder >40%
HLA-C*07:01 [8] = target: T6, HLA-C*07:01 (Homo sapiens, UniProt P10321, K90N/S123Y); conditions: duplicated experiments, positive binder >40%
HLA-C*07:01 [9] = target: T6, HLA-C*07:01; assay: affinity assay (ED50)
HLA-C*07:01 [10] = target: T6, HLA-C*07:01; assay: off-rate assay (t1/2); conditions: time points 0-8 h
HLA-B*58:01 [11] = target: T5, HLA-B*58:01
HLA-B*58:01 [12] = target: T5, HLA-B*58:01; conditions: time points 0-8 h
HLA-A*02:01 [13] = target: T1, HLA-A*02:01; conditions: […]; peptide quantity for 50% binding saturation
HLA-A*02:01 [14] = target: T1, HLA-A*02:01; conditions: time points 0-8 h; time when 50% of peptide has dissociated
HLA-A*24:02 [15] = target: T2, HLA-A*24:02
HLA-A*24:02 [16] = target: T2, HLA-A*24:02; conditions: time points 0-8 h
HLA-A*68:01 [17] = target: T4, HLA-A*68:01
HLA-A*68:01 [18] = target: T4, HLA-A*68:01; conditions: time points 0-8 h
[19] = percent relative the binding of positive control peptide […], plate-bound monomer 0.5 µg/ml, duplicated experiments, positive binder >40%
[20] = percent relative the binding of positive control peptide […]
[21] = peptide titrated 10−4 to 10−9 M

Substance | Bind A*02:01 (HLA-A*02:01 [1]; [19]) | Bind A*24:02 (HLA-A*24:02 [2]; [20]) | Bind A*30:01 (HLA-A*30:01; [20]) | Bind A*30:02 (HLA-A*30:02 [3]; [20]) | Aff A*30:02 (ED50) (HLA-A*30:02 [4]) | O-rate A*30:02 (t1/2) (HLA-A*30:02 [5]) | Bind A*68:01 (HLA-A*68:01 [6]; [20]) | Bind B*07:02 (HLA-B*07:02) | Bind B*58:01 (HLA-B*58:01 [7]; [20]) | Bind C*07:01 (HLA-C*07:01 [8]; [20]) | Aff C*07:01 (ED50) (HLA-C*07:01 [9]) | O-rate C*07:01 (t1/2) (HLA-C*07:01 [10]) | Aff B*58:01 (ED50) (HLA-B*58:01 [11]) | Aff A*24:02 (ED50) (HLA-A*24:02 [15]) | O-rate A*24:02 (t1/2) (HLA-A*24:02 [16]) | further results
LAAYHPQQF | 39% | 52% | 0% | 66% | 3e-07 M | 66 min | 37% | 74% | 13% | 84% | 1E -07 M | 24 min | – | – | – | –
AMEDLVRAY [Rv0288_61–69] | – | – | – | – | – | – | 0% | – | 14% | 46% | 5e-06 M | 6 min | – | – | – | –
YNYPAMLGH [Rv0288_6–14] | – | – | – | – | – | – | 30% | – | 0% | 48% | 7e-06 M | 18 min | – | – | – | –
RAVKPT GSA | 19% | 0% | 4% | 18% | – | – | 10% | 84% | 72% | 82% | 2E -07 M | 84 min | 5E -07 M | – | – | O-rate B*58:01 (t1/2) (HLA-B*58:01 [12]): 18 min
VRAYHAMSS [Rv0288_66–74] | – | – | – | – | – | – | 29% | – | 10% | 79% | 1e-06 M | 12 min | – | – | – | –
LAAAWGGSG [Rv3875_39-47] | – | – | – | – | – | 126 min | – | 4% | – | – | – | 60 min | – | – | – | Bind A*02:01 (HLA-A*02:01 [1]; percent relative the binding of positive control peptide FLPSDFFPSV, plate-bound monomer 0.5 µg/ml, duplicated experiments, positive binder >40%): 8%; Bind A*24:02 (HLA-A*24:02 [2]; percent relative the binding of positive control peptide RYLKDQQLL): 4%; Bind A*30:01 (HLA-A*30:01; percent relative the binding of positive control peptide KTKDIVNGL): 14%; Bind A*30:02 (HLA-A*30:02 [3]; percent relative the binding of positive control peptide KIQNFRVYY): 114%; Aff A*30:02 (ED50) (HLA-A*30:02 [4]; [21]): 7e-09 M; Bind A*68:01 (HLA-A*68:01 [6]; percent relative the binding of positive control peptide KTGGPIYKR): 10%; Bind B*58:01 (HLA-B*58:01 [7]; percent relative the binding of positive control peptide IAMESIVIW): 7%; Bind C*07:01 (HLA-C*07:01 [8]; percent relative the binding of positive control peptide KYFDEHYEY): 120%; Aff C*07:01 (ED50) (HLA-C*07:01 [9]; [21]): 4e-08 M
QT YKWETFL | 60% | 110% | 0% | 41% | 2E -08 M | 60 min | 46% | 0% | 40% | 15% | – | – | 2E -08 M | 2e-08 M | 120 min | Aff A*02:01 (ED50) (HLA-A*02:01 [13]): 3E -07 M; O-rate A*02:01 (t1/2) (HLA-A*02:01 [14]): 156 min; Aff A*68:01 (ED50) (HLA-A*68:01 [17]): 2E -07 M; O-rate A*68:01 (t1/2) (HLA-A*68:01 [18]): 42 min; O-rate B*58:01 (t1/2) (HLA-B*58:01 [12]): 90 min
NNSPAVYLL | 16% | 49% | 0% | 0% | – | – | 28% | 0% | 0% | 70% | 2e-07 M | 36 min | – | – | – | –
ANNTRLWVY | 5% | 32% | 19% | 195% | 2e-08 M | 114 min | 0% | 9% | 19% | 113% | 5e-09 M | 42 min | – | – | – | –
QIMYNYPTM [Rv0288_3–11m1] | 51% | 40% | 12% | 23% | – | – | – | 5% | 9% | – | – | – | – | 2e-06 M | 30 min | Aff A*02:01 (ED50) (HLA-A*02:01 [13]): 3e-06 M; O-rate A*02:01 (t1/2) (HLA-A*02:01 [14]): 42 min
SMAGSSAMI | – | 52% | 0% | 45% | 9e-08 M | 78 min | 0% | 14% | 95% | 0% | – | – | 2E -07 M | 2E -07 M | 24 min | Bind A*02:01 (HLA-A*02:01 [1]): 81; O-rate B*58:01 (t1/2) (HLA-B*58:01 [12]): 96 min
IMYNYPTML [Rv0288_4–12m1] | 88% | 43% | 28% | 15% | – | – | – | 7% | 37% | 5% | – | – | 0.0003 M | 8e-07 M | 30 min | Aff A*02:01 (ED50) (HLA-A*02:01 [13]): 4e-07 M; O-rate A*02:01 (t1/2) (HLA-A*02:01 [14]): 240 min
